Article PMC5427923, “A novel CCR2 antagonist inhibits atherogenesis in apoE deficient mice by achieving high receptor occupancy” (Scientific Reports, 2017)
Entries after “also recorded” stand apart in the source; their conditions may differ.

Experiments:
[1] = test system: leucocyte migration towards the peritoneal cavity; experiment: Pilot study: leucocyte migration towards the peritoneal cavity; format: in vivo, mouse; conditions: data not shown
Protocol: (§1) To measure plasma concentrations of 15a over time, Western type diet fed mice were injected with 5 mg/kg 15a, after which blood samples were taken at fixed time points (1, 2, 6 and 24 hours after injection). Blood samples were processed as described below under “Measurement of 15a plasma levels”. The final dose of 5 mg/kg/day was based on a pilot study in which two different doses (1.5 and 5 mg/kg/day) were tested using leucocyte migration towards the peritoneal cavity as a read-out. […] In addition, the dose of 5 mg/kg was also based on a previous study with TAK-779[38], in which a dose of 5 mg/kg was used.

[2] = 15a plasma levels by LC-MS after a single intraperitoneal dose; format: in vivo; conditions: apoE−/−, mouse
Protocol: as §1
Blood plasma from mice was analyzed by LC-MS to determine 15a plasma levels. 20 μL of internal standard (compound 15b, a diastereomer of 15a[24]) and 20 μL of solvent C (20% (v/v) Acetonitrile and 0.1% (v/v) TFA in LC-MS water) were first mixed with 20 µL of plasma. A calibration curve from 2 to 200 ng/ml of 15a was prepared using solvent C. Calibration samples were prepared as normal samples using blanc plasma and calibration solution instead of solvent C. Aliquots of 40 µL of 1% TFA were added to the samples and mixed well. After addition of 900 µL of ethyl acetate, mixing was performed for 5 minutes at a titramax plate shaker (Heidolph, Swabach, Germany). Samples were then centrifuged at 15,000 × g during 10 minutes and 800 µL of the supernatant was evaporated in a vacuum centrifuge (Labconco, Kansas City, Missouri). The sample was reconstituted by mixing with 10 µL of acetonitrile, followed by addition of 40 µL solvent C. After a second centrifugation at 15,000 × g for 10 minutes, 35 µL of supernatant were transferred to LC vials and inserted into the LC-MS system consisting of a Nexera X2 UHPLC system with two UHPLC pumps (Shimadzu, ’s Hertogenbosch, The Netherlands) connected to a TSQ Quantum Ultra (Thermo Fisher Scientific, Breda, The Netherlands). Separation of 15a was accomplished in a Gemini 3 µm C18 reversed phase HPLC column (50 × 4.6 mm) (Phenomenex, Amstelveen, The Netherlands) using an injection volume of 10 µL and a flow rate of 0.6 ml/min at 40 °C. After elution of 15a with a 9:11 (v/v) ratio of acetonitrile in water with 0.1% TFA, the column was flushed with a gradient up to 90% acetonitrile with 0.1% TFA. The column was re-equilibrated with a 9:11 (v/v) ratio of acetonitrile in water with 0.1% TFA before the next injection. […] The collision energy used was 26 V at a skimmer offset of 16 V, the scan peak width was 0.5 m/z, while the scan time was 0.3 seconds. Sheath gas and auxiliary gas pressure (Nitrogen) were set to 60 and 5 respectively (arbitrary units), and the collision gas Argon was set at 1.0 atm.
To determine the maximal value of k off that would prolong the receptor occupancy even further, we used equation (2)[28], in which BF represents the percentage of target occupancy divided by 100 and t 1/2el represents the plasma elimination half-life (0.693/k el). In this case we set BF to 0.90, as 90% represents the minimum value of target occupancy to achieve efficacy. To obtain the elimination rate constant of compound 15a, a linear regression analysis of the natural logarithm of the concentrations versus time was performed, and the slope coefficient was used as the elimination rate constant k el.2 koff<0.693⋅(1−BF)/t1/2el

apoE−/− mice = experiment: Body weight, cholesterol, liver toxicity markers and plasma cytokines in treated apoE−/− mice; format: in vivo, mouse
Protocol: (§2) To determine the effect of the CCR2 antagonist on atherosclerotic lesion development, mice were fed a Western type diet, containing 0.25% cholesterol and 15% cocoabutter (SDS, Sussex, UK) throughout the experiment starting two week before surgery. Carotid artery plaque formation was induced by perivascular collar placement as described previously[46] and from the time of surgery, the mice received daily intraperitoneal injections containing 15a (5 mg/kg/day) or vehicle control (n = 9–10 per group). During the experiment, total body weight and weight gain were measured. Serum total cholesterol levels were determined using an enzymatic colorimetric assay according to manufacturer’s protocol (Roche Diagnostics). Precipath (standardized serum; Boehringer Mannheim, Germany) was used as an internal standard. Plasma cytokine levels were measured by ELISA according to manufacturer’s protocol (BD Biosciences). Blood was collected weekly via tail cut. Total cell count and cellular differentiation patterns in blood were analyzed using an automated XT-2000iV veterinary hematology analyzer (Sysmex Europe GMBH, Norderstedt, Germany). After erythrocyte lysis, blood leukocyte suspensions were stained for surface markers, after which their expression was determined by FACS analysis (FACS Canto, BD Biosciences). After 4 weeks of lesion development, the animals were anaesthetized and blood was collected. After in situ perfusion through the left cardiac chamber, the carotid arteries and hearts were harvested.
Macrophage content of the lesions in carotid arteries and aortic roots was stained using a rat monoclonal MOMA2 antibody (1:1000, Serotec, Kidlington, Oxford, UK). Macrophage positive areas were analyzed using computer-assisted colour-gated analysis, and related to the total intimal surface area (Leica QWin). Liver cryosections of 10 µm thick were prepared and subsequently stained with hematoxylin-eosin to analyze liver morphology, which was assessed using a Leica DMRE microscope (Leica Ltd., Cambridge, England).
Total RNA was extracted from homogenized liver tissue with the guanidium thiocyanate-phenol-bromochloropropane extraction method. RNA concentration, purity and integrity were examined by nanodrop (Nanodrop® Technologies). RNA was reverse transcribed by M-MuLV reverse transcriptase (RevertAid, MBI Fermentas, Landsmeer, The Netherlands) and used for quantitative analysis of the mouse genes ALT, AST, apoH and GC with an ABI PRISM 7700 Taqman apparatus (Applied Biosystems). For qPCR primer pairs refer to Supplementary Table S1.

[3] = test system: circulating CCR2+ monocytes; experiment: Circulating blood cells (flow cytometry, hematology analyzer) in 15a treated apoE−/− mice; format: in vivo, mouse
Protocol: as §2

[4] = 4 weeks of treatment, 18 h after last injection

In the case of CC(C)[C@]1(C(=O)N2CCc3ccc(C(F)(F)F)cc3C2)CC[C@@H](N[C@@H]2CCc3cc(Br)ccc32)C1 [15a, ((1S,3R)-3-(((R)-5-bromo-2,3-dihydro-1H-inden-1-yl)amino)-1-isopropylcyclopentyl)(7-(trifluoromethyl)-3,4-dihydroisoquinolin-2(1H)-yl)methanone], the “effective in inhibiting leucocyte migration” value ([1]; 1.5 mg/kg per day) is reported as “not effective”, the “effective in inhibiting leucocyte migration” value ([1]; 5 mg/kg per day) is reported as “was” and the k el ([2]; intraperitoneal, 5 mg/kg, slope of the linear regression of the pharmacokinetic data, read-out: k el (elimination rate constant) (converted)) is reported as 1.8e-05 s⁻¹. For the same compound, the concentration at 1 h ([2]; ip, single intraperitoneal dose of 5 mg/kg, mice, range of individual mice, read-out: plasma levels 1 h after administration) was 12 to 1460 ng/mL, the concentration at 2 h ([2]; ip, single intraperitoneal dose of 5 mg/kg, mice, range of individual mice, read-out: plasma levels 2 h after dosing) was 613 to 1050 ng/mL and the concentration at 6 h ([2]; ip, single intraperitoneal dose of 5 mg/kg, mice, range of individual mice, read-out: plasma levels 6 h after administration) was 182 to 1020 ng/mL. For the same compound, the concentration at 24 h ([2]; ip, single intraperitoneal dose of 5 mg/kg, mice, range of individual mice, read-out: plasma levels 24 h after administration) was 32 to 331 ng/mL, the half-life ([2]; ip, single intraperitoneal dose of 5 mg/kg, mice, read-out: elimination half-life (converted)) was 10.7 h and the body weight (apoE−/− mice; 5 mg/kg/day i.p., four weeks) was “not significantly affected”. The body weight gain (apoE−/− mice; 5 mg/kg/day i.p., four weeks) was “not affected”, the “plasma total cholesterol levels” value (apoE−/− mice; 5 mg/kg/day i.p., four weeks) was “not significantly affected” and the “liver mRNA levels of AST” value (apoE−/− mice; P = 0.02) was “somewhat decreased”. For the same compound, the “liver mRNA expression of the toxicity markers ALT, apoH and GC” value (apoE−/− mice; mouse, in vivo) was “did not affect”, the “plasma CCL2 levels” value (apoE−/− mice; mouse, in vivo) was “increased” and the “plasma IL-6 levels” value (apoE−/− mice; mouse, in vivo) was “remained unaffected”. The liver morphology (apoE−/− mice; versus controls) was “similar”, the “number of circulating CCR2+ monocytes” value ([3]; 5 mg/kg/day i.p., 4 weeks, 18 hour after the last injection, controls 14.9 ± 3.2) was 4.5 ± 1.0 *10^3 cells/mL and the “percentage of circulating CCR2+ monocytes (CD11b+Ly6Glow cells)” value ([3]; 5 mg/kg/day i.p., two weeks of treatment, 2 hours after injection, controls 8.7 ± 1.2%) was 1.8 ± 0.2%. The “increase in the amount of CD11b+Ly6ClowCX3CR1+ monocytes” value [3, 4] was 1.5 fold, the “ratio of patrolling CD11b+Ly6ClowCX3CR1+ versus inflammatory CD11b+Ly6ChighCCR2+ monocytes in blood” value [3, 4] was “increased” and the “reduction in circulating CCR2+ monocyte numbers” value ([3]; at 18 hours after treatment) was greater than 60%. The “circulating total white blood cell (WBCs) count” value ([3]; at the time of sacrifice) was “No differences”, the total lymphocyte numbers ([3]; at the time of sacrifice) was “No differences; also recorded: remained unaffected” and the total neutrophil numbers ([3]; at the time of sacrifice) was “No differences; also recorded: remained unaffected”. The “total number of (circulating) monocytes” value ([3]; at the time of sacrifice) was “significantly reduced”, the “bone marrow monocyte subpopulations” value ([3]; data not shown) was “did not observe any effects” and the “number of neutrophils, CD19+ B cells, CD4+ or CD8+ T cells in blood or spleen” value ([3]; flow cytometry, 18 hour after the last injection, data not shown) was “did not affect”. For the same compound, the “splenic or circulating Tregs” value ([3]; flow cytometry, data not shown) was “nor did we detect any effects” and the “percentage of circulating CCR5+ monocytes” value ([3]; treated and untreated mice) was “did not observe any change”.
